Columns and labels:
TLR9 [1] = experiment: TLR9-induced IFN-alpha in murine splenocytes (CpG1585, ELISA); type: cell-based, 129/Sv mice; settings: Mus musculus, Splenocyte; read-out: TLR9-ligand induced IFNα in murine splenocytes IC50
Experimental: 2.3 Determination of TLR9-Induced IFN-Alpha in Murine Splenocytes
Excess fat was trimmed from the spleens prior to mashing the spleen through a […] cell strainer using a plunger from a 5 ml syringe. A single cell suspension was prepared and the volume was adjusted to 15 ml in a 50 ml Falcon tube using cold PBS. Cells were centrifuged at 1500 rpm for 5 minutes at 4° C. degrees prior to removal of supernatant and re-suspension in 5 ml of red blood cell lysis buffer per spleen and incubation for 5 minutes at room temperature. Ice cold PBS (30 ml) was added to the cells prior to centrifugation at 1500 rpm for 5 minutes at 4° C. The supernatant was removed and the cells were washed twice with 40 ml of murine splenocyte culture media (MSCM). […] Cells were re-suspended in 10-20 ml of MSCM and counted using a Countess cell counter. […]
After overnight culture, cells were transferred to 96-well V-bottomed plates and centrifuged at 2000 rpm for 5 minutes at room temperature. Subsequently 150 μl of each culture supernatant was transferred to 96-well flat-bottomed plates and […] were measured using commercially available mouse IFN-alpha sandwich ELISA kit (PBL Interferon Source). […] IFN-alpha levels were measured within 5 minutes using a SpectraMax 190 Plate Reader (450 nm) and analyzed using SoftMax Pro and GraphPad Prism software.

TLR9 [2] = experiment: TLR9-induced IFNalpha in isolated human pDCs (CpG2216, AlphaLISA); type: cell-based; settings: read-out: TLR9-ligand induced IFNα in human pDCs IC50
Experimental: 2.4 Determination of TLR9-Induced IFNalpha in Human Peripheral Blood Mononuclear Cells (PBMCs) and Isolated Plasmacytoid Dendritic Cells (pDCs)
Human PBMCs were prepared using Buffy Coats as source material from healthy donations (approx. 50 ml obtained from Blutspendezentrum SRK Basel) and processed as indicated above. […]
Compounds were pre-diluted in 100% v/v DMSO (#41640-100 mL; Sigma-Aldrich), followed by transfer in Media (to achieve a final DMSO concentration of 0.25%). […] Plates were briefly centrifuged (200×g for 2 min at 22° C.) and supernatant samples (30 μl) removed for quantification of IFNα levels.
For quantification of IFNalpha the human interferon AlphaLISA Kit (#AL264F) from PerkinElmer was used. […] After incubation, the plates were read with an EnVision™ multiplate reader equipped with the ALPHA option using the instrument's own “AlphaScreen standard settings” (e.g. total measurement time: 550 ms, Laser 680 nm excitation time: 180 ms, mirror: D640 as, emission filter: M570w, center wavelength 570 nm, bandwidth 100 nm, transmittance 75%). Data were collected for analysis and quantification of IFNα levels.
Data were analysed using Excel XL fit 4.0 (Microsoft) with XLfit add-in (IDBS; version 4.3.2). Specific IFNα concentrations were determined following extrapolation to standard curves using human IFNα B (2b). […]

CCC(=O)N1CC[C@H](Nc2ncnc3c2CN(c2cnc(OC)c(C(F)(F)F)c2)CC3)C1 [Example 67, 1-{(S)-3-[6-(6-Methoxy-5-trifluoromethyl-pyridin-3-yl)-5,6,7,8-tetrahydro-pyrido[4,3-d]pyrimidin-4-ylamino]-pyrrolidin-1-yl}-propan-1-one]
IC50 (TLR9 [1]): > 2220 nM | IC50 (TLR9 [2]): 33 nM

From patent US9949979B2, “Use of inhibitors of the activity or function of PI3K” (NOVARTIS AG, priority 2011, dated 2018)
